Laboratory results: PubChem BioAssay (NCI)
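Following 48 hours of exposure in 96-well plates, responses at five concentrations were used to interpolate endpoints linearly. The concentration for 50% growth inhibition is given as GI50. TGI: concentration producing complete growth inhibition.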

Assays:
Assay in all cases: growth of human tumour cells (NCI), 48 h
[1] = tested on: 786-0 renal
[2] = tested on: A498 renal
[3] = tested on: A549 NSCLC
[4] = tested on: ACHN renal
[5] = tested on: BT-549 breast
[6] = tested on: CAKI-1 renal
[7] = tested on: CCRF-CEM leukemia
[8] = tested on: COLO 205 colon
[9] = tested on: DU-145 prostate
[10] = tested on: EKVX NSCLC
[11] = tested on: HCC-2998 colon
[12] = tested on: HCT-116 colon
[13] = tested on: HCT-15 colon
[14] = tested on: HL-60(TB) leukemia
[15] = tested on: HOP-62 NSCLC
[16] = tested on: HOP-92 NSCLC
[17] = tested on: HS 578T breast
[18] = tested on: HT29 colon
[19] = tested on: IGROV1 ovarian
[20] = tested on: K-562 leukemia
[21] = tested on: KM12 colon
[22] = tested on: LOX IMVI melanoma
[23] = tested on: M14 melanoma
[24] = tested on: MALME-3M melanoma
[25] = tested on: MCF7 breast
[26] = tested on: MDA-MB-231 breast
[27] = tested on: MDA-MB-435
[28] = tested on: MOLT-4 leukemia
[29] = tested on: NCI-H226 lung
[30] = tested on: NCI-H23 lung
[31] = tested on: NCI-H460 lung
[32] = tested on: NCI-H522 lung
[33] = tested on: NCI/ADR-RES ovarian
[34] = tested on: OVCAR-3 ovarian
[35] = tested on: OVCAR-4 ovarian
[36] = tested on: OVCAR-5 ovarian
[37] = tested on: OVCAR-8 ovarian
[38] = tested on: PC-3 prostate
[39] = tested on: RPMI-8226 leukemia
[40] = tested on: RXF 393 renal
[41] = tested on: SF-268 CNS
[42] = tested on: SF-295 CNS
[43] = tested on: SF-539 CNS
[44] = tested on: SK-MEL-2 melanoma
[45] = tested on: SK-MEL-28 melanoma
[46] = tested on: SK-MEL-5 melanoma
[47] = tested on: SK-OV-3 ovarian
[48] = tested on: SN12C renal
[49] = tested on: SNB-19 CNS
[50] = tested on: SNB-75 CNS
[51] = tested on: SR leukemia
[52] = tested on: SW-620 colon
[53] = tested on: T-47D breast
[54] = tested on: TK-10 renal
[55] = tested on: U251 CNS
[56] = tested on: UACC-257 melanoma
[57] = tested on: UACC-62 melanoma
[58] = tested on: UO-31 renal

With Cc1ccc(Nc2ccnc(Nc3cccc(C(N)=O)c3)n2)cc1O the GI50 [1] was 8.09 µM, the TGI [1] was > 25 µM and the GI50 [2] was 7.31 µM. The TGI [2] was > 25 µM, the GI50 [3] was 8.44 µM and the TGI [3] was > 25 µM. For the same compound, the GI50 [4] was 4.32 µM, the TGI [4] was > 25 µM and the GI50 [5] was 6.4 µM. The TGI [5] was > 25 µM, the GI50 [6] was 4.11 µM and the TGI [6] was 19 µM. For the same compound, the GI50 [7] was 7.99 µM, the TGI [7] was > 25 µM and the GI50 [8] was 10.1 µM. The TGI [8] was > 20.6 µM, the GI50 [9] was 7.14 µM and the TGI [9] was > 25 µM. The GI50 [10] was 9.2 µM, the TGI [10] was > 25 µM and the GI50 [11] was 12.6 µM. The TGI [11] was > 25 µM, the GI50 [12] was 8.01 µM and the TGI [12] was > 25 µM. The GI50 [13] was 7.16 µM, the TGI [13] was > 25 µM and the GI50 [14] was 8.1 µM. For the same compound, the TGI [14] was > 25 µM, the GI50 [15] was 5.5 µM and the TGI [15] was > 19 µM. The GI50 [16] was 0.891 µM, the TGI [16] was 8.25 µM and the GI50 [17] was 0.742 µM. The TGI [17] was 8.98 µM, the GI50 [18] was 13.9 µM and the TGI [18] was > 25 µM. For the same compound, the GI50 [19] was 5.37 µM, the TGI [19] was 15.1 µM and the GI50 [20] was 1.34 µM. The TGI [20] was > 25 µM, the GI50 [21] was 7.27 µM and the TGI [21] was > 25 µM. The GI50 [22] was 3.02 µM, the TGI [22] was 7.22 µM and the GI50 [23] was 5.87 µM. The TGI [23] was > 25 µM, the GI50 [24] was 6.27 µM and the TGI [24] was > 25 µM. For the same compound, the GI50 [25] was 8.28 µM, the TGI [25] was > 25 µM and the GI50 [26] was 4.27 µM. The TGI [26] was > 25 µM, the GI50 [27] was 7.98 µM and the TGI [27] was > 25 µM. For the same compound, the GI50 [28] was 10.5 µM, the TGI [28] was > 25 µM and the GI50 [29] was 5.43 µM. For the same compound, the TGI [29] was > 23.7 µM, the GI50 [30] was 9.44 µM and the TGI [30] was > 25 µM. For the same compound, the GI50 [31] was 11.4 µM, the TGI [31] was > 25 µM and the GI50 [32] was 3.22 µM. The TGI [32] was > 15.1 µM, the GI50 [33] was > 18.7 µM and the TGI [33] was > 25 µM. For the same compound, the GI50 [34] was 6.65 µM, the TGI [34] was > 25 µM and the GI50 [35] was 6.19 µM. The TGI [35] was > 25 µM, the GI50 [36] was 10.2 µM and the TGI [36] was > 25 µM. For the same compound, the GI50 [37] was 6.51 µM, the TGI [37] was > 25 µM and the GI50 [38] was 5.42 µM. For the same compound, the TGI [38] was > 25 µM, the GI50 [39] was > 25 µM and the TGI [39] was > 25 µM. For the same compound, the GI50 [40] was 0.895 µM, the TGI [40] was 4.84 µM and the GI50 [41] was 3.84 µM. For the same compound, the TGI [41] was > 17.7 µM, the GI50 [42] was 7.69 µM and the TGI [42] was > 25 µM. For the same compound, the GI50 [43] was 3.46 µM, the TGI [43] was 11.1 µM and the GI50 [44] was 8.45 µM. The TGI [44] was > 25 µM, the GI50 [45] was 11.2 µM and the TGI [45] was > 25 µM. For the same compound, the GI50 [46] was 6.63 µM, the TGI [46] was > 21.6 µM and the GI50 [47] was 1.96 µM. The TGI [47] was 12.1 µM, the GI50 [48] was 3.7 µM and the TGI [48] was > 25 µM. The GI50 [49] was 11.5 µM, the TGI [49] was > 25 µM and the GI50 [50] was 0.431 µM. For the same compound, the TGI [50] was 3.93 µM, the GI50 [51] was 11.3 µM and the TGI [51] was > 25 µM. For the same compound, the GI50 [52] was 9.62 µM, the TGI [52] was > 25 µM and the GI50 [53] was 4.74 µM. For the same compound, the TGI [53] was > 21.2 µM, the GI50 [54] was 6.39 µM and the TGI [54] was 17.6 µM. The GI50 [55] was 7.84 µM, the TGI [55] was > 25 µM and the GI50 [56] was 15.5 µM. The TGI [56] was > 25 µM, the GI50 [57] was 7.08 µM and the TGI [57] was > 25 µM. For the same compound, the GI50 [58] was 0.846 µM and the TGI [58] was 11.9 µM.
